This note sets out measurements from PubChem BioAssay (NCI).

Molecules are shown by their SMILES. Several values for one entry are separate records, joined by “and”; a condition that tells them apart may be missing. Identical values can stand only once.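 Method: 48-hour compound exposure of cells in 96-well plates, five concentrations, linear interpolation of endpoints. GI50 = concentration required for 50% inhibition of growth. TGI marks complete inhibition of growth.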

What all share (assay): NCI tumour cell line growth inhibition, 48 h
Assay [1] relates to CAKI-1 renal.
The test system of assay [2] is LOX IMVI melanoma.
The subject of assay [3] is UACC-62 melanoma.
Assay [4] relates to HCT-116 colon.
The subject of assay [5] is COLO 205 colon.
The subject of assay [6] is HOP-92 NSCLC.
For assay [7], the system named is U251 CNS.
The test system of assay [8] is NCI-H226 lung.
Assay [9] has as its system KM12 colon.
In assay [10] the test system is ACHN renal.

For the compound `O=C(Nc1cc(C(F)(F)F)cc(C(F)(F)F)c1)c1cc(Cl)ccc1O`, the GI50 in assay [1] was 212 nM and 180 nM; in assay [2] it was 316 nM and 366 nM; in [3], 129 nM and 100 nM; in assay [4] it was 213 nM and 238 nM; in assay [5] it was 696 nM and 1340 nM; in assay [6], 120 nM and 41.2 nM. Moreover, the GI50 in [7] is 234 nM and 228 nM; in [8], 262 nM and 317 nM; in assay [9], 318 nM and 312 nM; in assay [10], 294 nM and 260 nM. Besides, the TGI is 644 nM and 677 nM in assay [1]; 1510 nM and 2680 nM in assay [2]; 668 nM and 595 nM in [3]; 999 nM and 1160 nM in [4]; 2340 nM and 3220 nM in [5]; 418 nM and 304 nM in assay [6]. The TGI in [7] was > 9500 nM and 7900 nM; in assay [8], 992 nM and 1590 nM; in assay [9], 1140 nM and 1120 nM; in assay [10], 1190 nM and 978 nM.
As for `C=CCC1(c2ccc(OC)cc2)C=CC(=O)CC1` (stereo not given), the TGI in assay [1], in [2], in assay [3], in assay [4], in assay [5] and in [6] was over 100000 nM in each case. The TGI in assay [7], in assay [8], in [9] and in [10] was over 100000 nM throughout.
As to `COc1c(O)c2c(=O)cc3c4c5c(cc(=O)c6c(O)c(OC)c(CC(C)O)c(c(c1CC(C)O)c24)c65)OCO3` (stereo not given), the TGI in [1] worked out at 24300 nM; in assay [2] it was 2280 nM; in assay [3], 3790 nM; in assay [4], 3480 nM; in assay [5] it was 765 nM; in assay [6], 5470 nM. In addition, the TGI in [7] was determined as 4080 nM; in [8] it was 6660 nM; in [9], 4090 nM; in assay [10], 5960 nM.
Consider `CCOC(=O)Nc1cc2c(c(N)n1)N=C(c1ccccc1)CO2`, for which the GI50 in assay [1] is 102 nM; in assay [2], 368 nM; in assay [3], 359 nM; in [4], 84 nM; in [5], 102 nM; in assay [6], 7130 nM. For the same compound, the GI50 in assay [7] is 183 nM; in assay [8], 4160 nM; in assay [9], 36.6 nM; in assay [10], 986 nM. In addition, the TGI was 7620 nM in assay [1]; over 100000 nM in assay [2]; 31300 nM in [3]; 13900 nM in [4]; 885 nM in assay [5]; 29100 nM in [6]. Moreover, the TGI in assay [7] came out at 14300 nM; in assay [8], 41400 nM; in [9], 2110 nM; in assay [10], 31700 nM.
On to `CN(C)C1CCN(C(=O)c2ccc(NC(=O)Nc3ccc(-c4nc(N5CCOCC5)c5cccn5n4)cc3)cc2)CC1`, for which the GI50 is 3390 nM in assay [1]; 26.7 nM in assay [2]; 44.4 nM in assay [3]; 70.5 nM in assay [4]; 53.5 nM in assay [5]; under 15 nM in assay [6]. Further, the GI50 in [7] is 59.9 nM; in assay [8] it was 43.5 nM; in assay [9] it was 155 nM; in assay [10], 1050 nM. In addition, the TGI in assay [1] is 20800 nM; in [2], 1190 nM; in assay [3] it was 287 nM; in [4] it was 20000 nM; in assay [5], 1420 nM; in assay [6] it was 102 nM. Besides, the TGI in assay [7] was determined as 14400 nM; in [8] it was 2990 nM; in assay [9], 7690 nM; in assay [10], 13000 nM.
`Cc1nnc(Nc2ccc(NC(=O)Nc3ccc(Cl)cc3)cc2)c2ccccc12`: the GI50 is 3490 nM in assay [1]; 1750 nM in assay [2]; 1750 nM in [3]; 1860 nM in [4]; 2220 nM in [5]; 2560 nM in assay [6]. Further, the GI50 in [7] was 1980 nM; in [8], 3610 nM; in [9], 1990 nM; in assay [10] it was 1840 nM. In addition, the TGI in [1] was found to be 12800 nM; in assay [2], 3270 nM; in [3], 3590 nM; in assay [4], 3590 nM; in [5], 5290 nM; in assay [6], 6060 nM. The TGI was found to be 3750 nM in [7], 15900 nM in assay [8], 4530 nM in [9] and 3690 nM in assay [10].
In the case of `O=C(NC[C@H](O)CN1CCc2ccccc2C1)c1cc(NC2COC2)ncn1`, the GI50 is 26400 nM in [1]; 7210 nM in assay [2]; 21300 nM in assay [3]; 22700 nM in assay [4]; 13400 nM in [5]; 18100 nM in assay [6]. Moreover, the GI50 is 13000 nM in assay [7], 9880 nM in assay [8], 16200 nM in assay [9] and 25100 nM in assay [10]. Further, the TGI in assay [1] was over 100000 nM; in assay [2] it was 23300 nM; in assay [3], over 100000 nM; in [4], over 100000 nM; in assay [5], over 100000 nM; in assay [6], over 100000 nM. Further, the TGI was over 100000 nM in assay [7], 40200 nM in [8], over 100000 nM in assay [9] and over 100000 nM in [10].
As for `O=C(Nc1ccc(Br)cc1F)c1cc(Cl)ccc1O`, the GI50 in [1] is 319 nM; in assay [2], 501 nM; in assay [3], 292 nM; in assay [4], 522 nM; in [5] it was 2740 nM; in [6] it was 174 nM. For the same compound, the GI50 in [7] is 709 nM; in assay [8] it was 1200 nM; in assay [9], 2140 nM; in assay [10], 619 nM. Also, the TGI in [1] is 2850 nM; in assay [2], 3760 nM; in [3], 1160 nM; in [4], 2450 nM; in assay [5] it was 8200 nM; in [6], 557 nM. In addition, the TGI in [7] was over 100000 nM; in assay [8], 4570 nM; in assay [9], 5430 nM; in [10], over 31300 nM.
